Results from US12077503B2, “Substituted cyclic amides and their use as herbicides” (FMC CORPORATION, priority 2015, dated 2024).

Experiments:
Format in all cases: in vivo
[1] = system: ducksalad (Heteranthera limosa); experiment: Test B flooded paddy test; conditions: Heteranthera limosa, 250 g ai/ha, Flood; 0 to 100 scale where 0 is no effect and 100 is complete control; read-out: Ducksalad plant response rating
Summary of the method: (§1)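 Response scored visually against untreated controls, 0 = no effect and 100 = complete control, 13–15 d after treatment in the greenhouse. Compounds added to paddy water held 3 cm above soil surface. Treatment given at 2-leaf stage.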

rice (Oryra sativa) = experiment: Test B flooded paddy test; conditions: Oryza sativa, 250 g ai/ha, Flood; 0 to 100 scale where 0 is no effect and 100 is complete control; read-out: Rice plant response rating
Summary of the method: as §1

[2] = system: sedge, umbrella (small-flower umbrella sedge, Cyperus difformis); experiment: Test B flooded paddy test; conditions: Cyperus difformis, 250 g ai/ha, Flood; 0 to 100 scale where 0 is no effect and 100 is complete control; read-out: Sedge, Umbrella plant response rating
Summary of the method: as §1

[3] = system: barnyardgrass (Echinochloa crus-galli); experiment: Test B flooded paddy test; conditions: Echinochloa crus-galli, 250 g ai/ha, Flood; 0 to 100 scale where 0 is no effect and 100 is complete control; read-out: Barnyardgrass plant response rating
Summary of the method: as §1

[4] = system: blackgrass (Alopecurus myosuroides); experiment: Test A postemergence; conditions: Alopecurus myosuroides, post-emergence, 240 h, read-out: Plant response rating, Blackgrass; for pest or weed control at 125 g/ha: 125 g ai/ha, Postemergence, visual injury after approximately 10 d, 0 to 100 scale where 0 is no effect and 100 is complete control; for pest or weed control at 500 g/ha: 500 g ai/ha, postemergence, visual injury, 0 to 100 scale (0 no effect, 100 complete control), approx. 10 d
Summary of the method: (§2)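 Treatment is preemergence as a directed soil spray after planting, or postemergence at the one- to two-leaf stage, with test chemical in a non-phytotoxic solvent mixture plus surfactant. Plants stay in the greenhouse about 10 d before visual injury scoring on a 0 to 100 scale versus untreated controls.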

[5] = system: wheat (Triticum aestivum); experiment: Test A postemergence; conditions: Triticum aestivum, post-emergence, 240 h, read-out: Plant response rating, Wheat; for plant injury at 125 g/ha: 125 g ai/ha, Postemergence, visual injury after approximately 10 d, 0 to 100 scale where 0 is no effect and 100 is complete control; for plant injury at 500 g/ha: 500 g ai/ha, postemergence, visual injury, 0 to 100 scale (0 no effect, 100 complete control), approx. 10 d
Summary of the method: as §2

[6] = system: Galium (catchweed bedstraw, Galium aparine); experiment: Test A postemergence; conditions: Galium, post-emergence, 240 h, read-out: Plant response rating, Galium; for pest or weed control at 125 g/ha: 125 g ai/ha, Postemergence, visual injury after approximately 10 d, 0 to 100 scale where 0 is no effect and 100 is complete control; for pest or weed control at 500 g/ha: 500 g ai/ha, postemergence, visual injury, 0 to 100 scale (0 no effect, 100 complete control), approx. 10 d
Summary of the method: as §2

[7] = system: ryegrass, Italian (Italian ryegrass, Lolium multiflorum); experiment: Test A postemergence; conditions: Lolium multiflorum, post-emergence, 240 h, read-out: Plant response rating, Ryegrass, Italian; for pest or weed control at 125 g/ha: 125 g ai/ha, Postemergence, visual injury after approximately 10 d, 0 to 100 scale where 0 is no effect and 100 is complete control; for pest or weed control at 500 g/ha: 500 g ai/ha, postemergence, visual injury, 0 to 100 scale (0 no effect, 100 complete control), approx. 10 d
Summary of the method: as §2

[8] = system: barnyardgrass (Echinochloa crus-galli); experiment: Test A postemergence; conditions: Echinochloa crus-galli, post-emergence, 240 h, read-out: Plant response rating, Barnyardgrass; for pest or weed control at 125 g/ha: 125 g ai/ha, Postemergence, visual injury after approximately 10 d, 0 to 100 scale where 0 is no effect and 100 is complete control; for pest or weed control at 500 g/ha: 500 g ai/ha, postemergence, visual injury, 0 to 100 scale (0 no effect, 100 complete control), approx. 10 d
Summary of the method: as §2

[9] = system: pigweed (Amaranthus retroflexus); experiment: Test A postemergence; conditions: Amaranthus retroflexus, post-emergence, 240 h, read-out: Plant response rating, Pigweed; for pest or weed control at 125 g/ha: 125 g ai/ha, Postemergence, visual injury after approximately 10 d, 0 to 100 scale where 0 is no effect and 100 is complete control; for pest or weed control at 500 g/ha: 500 g ai/ha, postemergence, visual injury, 0 to 100 scale (0 no effect, 100 complete control), approx. 10 d
Summary of the method: as §2

[10] = system: giant foxtail (Setaria faberii); experiment: Test A postemergence; conditions: Setaria faberi, post-emergence, 240 h, read-out: Plant response rating, Foxtail, Giant; for pest or weed control at 125 g/ha: 125 g ai/ha, Postemergence, visual injury after approximately 10 d, 0 to 100 scale where 0 is no effect and 100 is complete control; for pest or weed control at 500 g/ha: 500 g ai/ha, postemergence, visual injury, 0 to 100 scale (0 no effect, 100 complete control), approx. 10 d
Summary of the method: as §2

Kochia (Kochia scoparia) [11] = experiment: Test A postemergence; conditions: Bassia scoparia, post-emergence, 240 h, read-out: Plant response rating, Kochia; for pest or weed control at 125 g/ha: 125 g ai/ha, Postemergence, visual injury after approximately 10 d, 0 to 100 scale where 0 is no effect and 100 is complete control; for pest or weed control at 500 g/ha: 500 g ai/ha, postemergence, visual injury, 0 to 100 scale (0 no effect, 100 complete control), approx. 10 d
Summary of the method: as §2

[12] = system: ragweed (common ragweed, Ambrosia elatior); experiment: Test A postemergence; conditions: Ambrosia artemisiifolia, post-emergence, 240 h, read-out: Plant response rating, Ragweed; for pest or weed control at 125 g/ha: 125 g ai/ha, Postemergence, visual injury after approximately 10 d, 0 to 100 scale where 0 is no effect and 100 is complete control; for pest or weed control at 500 g/ha: 500 g ai/ha, postemergence, visual injury, 0 to 100 scale (0 no effect, 100 complete control), approx. 10 d
Summary of the method: as §2

corn (Zea mays) = experiment: Test A postemergence; conditions: Zea mays, post-emergence, 240 h; for Corn plant response rating (crop injury, 0 = no effect, 100 = complete kill) at 125 g/ha: 125 g ai/ha, Postemergence, visual injury after approximately 10 d, 0 to 100 scale where 0 is no effect and 100 is complete control; for Corn plant response rating (crop injury, 0 = no effect, 100 = complete kill) at 500 g/ha: 500 g ai/ha, postemergence, visual injury, 0 to 100 scale (0 no effect, 100 complete control), approx. 10 d
Summary of the method: as §2

[13] = system: ryegrass, Italian (Italian ryegrass, Lolium multiflorum); experiment: Test A preemergence; conditions: Lolium multiflorum, pre-emergence, 240 h; for pest or weed control at 125 g/ha: 125 g ai/ha, Preemergence, visual injury rating after approximately 10 d, read-out: Ryegrass, Italian plant response rating (0 to 100 scale, 0 is no effect, 100 is complete control); for pest or weed control at 500 g/ha: 500 g ai/ha, preemergence, visual injury rating about 10 d after treatment, 0 to 100 scale (0 no effect, 100 complete control), read-out: Ryegrass, Italian plant response rating
Summary of the method: as §2

[14] = system: barnyardgrass (Echinochloa crus-galli); experiment: Test A preemergence; conditions: Echinochloa crus-galli, pre-emergence, 240 h; for pest or weed control at 125 g/ha: 125 g ai/ha, Preemergence, visual injury rating after approximately 10 d, read-out: Barnyardgrass plant response rating (0 to 100 scale, 0 is no effect, 100 is complete control); for pest or weed control at 500 g/ha: 500 g ai/ha, preemergence, visual injury rating about 10 d after treatment, 0 to 100 scale (0 no effect, 100 complete control), read-out: Barnyardgrass plant response rating
Summary of the method: as §2

[15] = system: pigweed (Amaranthus retroflexus); experiment: Test A preemergence; conditions: Amaranthus retroflexus, pre-emergence, 240 h; for pest or weed control at 125 g/ha: 125 g ai/ha, Preemergence, visual injury rating after approximately 10 d, read-out: Pigweed plant response rating (0 to 100 scale, 0 is no effect, 100 is complete control); for pest or weed control at 500 g/ha: 500 g ai/ha, preemergence, visual injury rating about 10 d after treatment, 0 to 100 scale (0 no effect, 100 complete control), read-out: Pigweed plant response rating
[16] = system: giant foxtail (Setaria faberii); experiment: Test A preemergence; conditions: Setaria faberi, pre-emergence, 240 h; for pest or weed control at 125 g/ha: 125 g ai/ha, Preemergence, visual injury rating after approximately 10 d, read-out: Foxtail, Giant plant response rating (0 to 100 scale, 0 is no effect, 100 is complete control); for pest or weed control at 500 g/ha: 500 g ai/ha, preemergence, visual injury rating about 10 d after treatment, 0 to 100 scale (0 no effect, 100 complete control), read-out: Foxtail, Giant plant response rating
Summary of the method: as §2

Kochia (Kochia scoparia) [17] = experiment: Test A preemergence; conditions: Bassia scoparia, pre-emergence, 240 h; for pest or weed control at 125 g/ha: 125 g ai/ha, Preemergence, visual injury rating after approximately 10 d, read-out: Kochia plant response rating (0 to 100 scale, 0 is no effect, 100 is complete control); for pest or weed control at 500 g/ha: 500 g ai/ha, preemergence, visual injury rating about 10 d after treatment, 0 to 100 scale (0 no effect, 100 complete control), read-out: Kochia plant response rating
Summary of the method: as §2

[18] = system: ragweed (common ragweed, Ambrosia elatior); experiment: Test A preemergence; conditions: Ambrosia artemisiifolia, pre-emergence, 240 h; for pest or weed control at 125 g/ha: 125 g ai/ha, Preemergence, visual injury rating after approximately 10 d, read-out: Ragweed plant response rating (0 to 100 scale, 0 is no effect, 100 is complete control); for pest or weed control at 500 g/ha: 500 g ai/ha, preemergence, visual injury rating about 10 d after treatment, 0 to 100 scale (0 no effect, 100 complete control), read-out: Ragweed plant response rating
Summary of the method: as §2

| SMILES | pest or weed control at 250 g/ha [1] [%] | pest or weed control at 250 g/ha (rice (Oryra sativa)) [%] | pest or weed control at 250 g/ha [2] [%] | pest or weed control at 250 g/ha [3] [%] | pest or weed control at 125 g/ha [4] [%] | pest or weed control at 500 g/ha [4] [%] | plant injury at 125 g/ha [5] [%] | plant injury at 500 g/ha [5] [%] | pest or weed control at 125 g/ha [6] [%] | pest or weed control at 500 g/ha [6] [%] | pest or weed control at 125 g/ha [7] [%] | pest or weed control at 500 g/ha [7] [%] | pest or weed control at 125 g/ha [8] [%] | pest or weed control at 500 g/ha [8] [%] | pest or weed control at 125 g/ha [9] [%] | pest or weed control at 500 g/ha [9] [%] | pest or weed control at 125 g/ha [10] [%] | pest or weed control at 500 g/ha [10] [%] | pest or weed control at 125 g/ha (Kochia (Kochia scoparia) [11]) [%] | pest or weed control at 500 g/ha (Kochia (Kochia scoparia) [11]) [%] | also measured |
| --- | --- | --- | --- | --- | --- | --- | --- | --- | --- | --- | --- | --- | --- | --- | --- | --- | --- | --- | --- | --- | --- |
| CSc1ccccc1NC(=O)[C@H]1C(=O)N(C)C[C@@H]1c1ccc(C)c(Cl)c1 [Compound 1015] | 90 | 40 | 35 | 95 | 0 | 50 | 0 | 60 | 40 | 70 | 30 | 50 | 90 | 90 | 30 | 50 | 80 | 80 | 0 | 50 | pest or weed control at 125 g/ha [12]: 0%; pest or weed control at 500 g/ha [12]: 40%; Corn plant response rating (crop injury, 0 = no effect, 100 = complete kill) at 125 g/ha (corn (Zea mays)): 70%; Corn plant response rating (crop injury, 0 = no effect, 100 = complete kill) at 500 g/ha (corn (Zea mays)): 90%; pest or weed control at 125 g/ha [13]: 40%; pest or weed control at 500 g/ha [13]: 90%; pest or weed control at 125 g/ha [14]: 90%; pest or weed control at 500 g/ha [14]: 90%; pest or weed control at 125 g/ha [15]: 0%; pest or weed control at 500 g/ha [15]: 40%; pest or weed control at 125 g/ha [16]: 90%; pest or weed control at 500 g/ha [16]: 90%; pest or weed control at 125 g/ha (Kochia (Kochia scoparia) [17]): 0%; pest or weed control at 500 g/ha (Kochia (Kochia scoparia) [17]): 60%; pest or weed control at 125 g/ha [18]: 0%; pest or weed control at 500 g/ha [18]: 50% |
| Cc1ccc([C@H]2CN(C)C(=O)[C@@H]2C(=O)Nc2ccccc2S(C)(=O)=O)cc1Cl [Compound 1018] | 90 | 0 | 0 | 65 | 0 | 50 | 30 | 50 | 30 | 60 | 30 | 60 | 90 | 90 | 30 | 60 | 90 | 90 | 30 | 50 | pest or weed control at 125 g/ha [12]: 0%; pest or weed control at 500 g/ha [12]: 30%; Corn plant response rating (crop injury, 0 = no effect, 100 = complete kill) at 125 g/ha (corn (Zea mays)): 70%; Corn plant response rating (crop injury, 0 = no effect, 100 = complete kill) at 500 g/ha (corn (Zea mays)): 90%; pest or weed control at 125 g/ha [13]: 0%; pest or weed control at 500 g/ha [13]: 70%; pest or weed control at 125 g/ha [14]: 90%; pest or weed control at 500 g/ha [14]: 90%; pest or weed control at 125 g/ha [15]: 30%; pest or weed control at 500 g/ha [15]: 80%; pest or weed control at 125 g/ha [16]: 90%; pest or weed control at 500 g/ha [16]: 90%; pest or weed control at 125 g/ha (Kochia (Kochia scoparia) [17]): 0%; pest or weed control at 500 g/ha (Kochia (Kochia scoparia) [17]): 60%; pest or weed control at 125 g/ha [18]: 0%; pest or weed control at 500 g/ha [18]: 40% |
